Measurements published in BindingDB's records for patent US10562890 (University of Virginia Patent Foundation, 2020).

Target: T1, Core-binding factor subunit beta (Homo sapiens, UniProt Q13951)
T1 sequence (Q13951 whole entry): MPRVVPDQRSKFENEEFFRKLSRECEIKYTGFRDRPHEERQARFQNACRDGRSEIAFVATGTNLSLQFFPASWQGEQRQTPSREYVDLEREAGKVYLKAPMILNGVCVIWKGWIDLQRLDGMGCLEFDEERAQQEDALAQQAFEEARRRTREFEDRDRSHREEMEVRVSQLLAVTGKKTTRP
Assay: Fluorescence Resonance Energy Transfer (FRET) Assay
Source text: FRET assay can be used to effectively monitor the inhibition of CBF binding to the Runt domain of RUNX proteins (as well as for CBFβ-SMMHC binding to the Runt domain of RUNX proteins). For the assay, the green fluorescent protein derivative Cerulean is fused to the N-terminus of the Runt domain and the green fluorescent protein derivative Venus to the N-terminus of CBFβ.

## FC(F)(F)Oc1ccc2[nH]c(-c3ccc(OCCN4CCN(Cc5ccccc5)CC4)cn3)nc2c1 [US10562890, Compound Al-14-95]
  IC50: 2650 nM

## COc1cc(OCCN2CCN(Cc3ccccc3)CC2)cnc1-c1nc2cc(OC(F)(F)F)ccc2[nH]1 [US10562890, Compound Al-14-100]
  IC50: 2160 nM
